“And” between values parts separate entries of the source, which are not always exact repeats. Equal entries are not always repeated.
Experiments:
[1] = test system: relapsed and/or refractory CD19+ B-ALL; format: in vivo, human
[2] = test system: relapsed and/or refractory CD19+ NHL; settings: human, in vivo

Molecule	Odds Ratio (95% CI) for MRD-negative CR ([1]; univariate, fludarabine added to cyclophosphamide-based lymphodepletion (Y))	Estimate, univariate association with Disease-Free Survival ([1]; human, in vivo)	Estimate, univariate association with Overall Survival ([1]; human, in vivo)	Exp (Coef) = hazard ratio for DFS ([1]; human, in vivo)	Exp (−Coef) for DFS ([1]; human, in vivo)	Hazard Ratio (95% CI) for DFS ([1]; human, in vivo)	HR (95% CI) for PFS [2]	HR for PFS [2]
Nc1nc(F)nc2c1ncn2[C@@H]1O[C@H](CO)[C@@H](O)[C@@H]1O [Fludarabine, fludarabine]	0.50 (0.03-3.31)							
cyclophosphamide and fludarabine [Cy/Flu]		0.2967	0.4349	0.2490	4.0154	0.2777 (0.1095-0.7042) and 0.2794 (0.1109-0.7042)	1.92 (0.99-3.72)	4.266
